# Test results taken from patent publication US8980907B2, “Dendrimer conjugates” (The Regents of the University of Michigan, priority 2008, dated 2015).
# Legend:
# porcine liver esterase = assay: In vitro release of morphine from pro-drug with porcine liver esterase (HPLC); assay type: in vitro ADME; conditions: 20 μM, porcine liver esterase 0.01 U, phosphate buffer pH 7.0, 2 and 16 hours
# Procedure: [drawing 26] was incubated with porcine liver esterase (Sigma, 0.01 U) in 20 mM phosphate buffer pH 7.0 for 2 and 16 hours. At the end of the time periods the samples were frozen at −20° C. and were thawed prior to loading onto the HPLC column.
# Male Hartley guinea pigs = assay: Randall & Selitto paw pressure analgesia test in guinea pig; assay type: in vivo; conditions: pain threshold at 60, 150, 240 and 360 min after administration
# Source text: Male Hartley guinea pigs (375-475 g) from Elm Hill labs were allowed free access to food and water before being used in the testing of analgesia effects free morphine, morphine complex, and morphine prodrug A complex
# The Randall & Selitto test apparatus (Harvard Instruments) is used to measure analgesia and is based on determination of the animal threshold response to pain induced in the paw by the application of a uniformly increasing pressure from a conical tip upon the dorsal surface of the rear paw which rests on a platform. The weight in grams is taken upon withdrawal of the animals paw from the platform with five repeated measurements of pain threshold recorded for each time point (control, 60, 150, 240, and 360 min) after drug administration. Values are normalized to control and the mean±SEM for each time point are recorded. To reduce tissue damage to the animal a weight limit is used for all animals.
# solid tumors = conditions: cited from earlier work
SMILES,release of morphine from pro-drug (porcine liver esterase),analgesia / release of morphine in vivo (Male Hartley guinea pigs),in vivo activity in solid tumor models (solid tumors)
CN1CC[C@]23c4c5ccc(OC(=O)CCC(=O)OC(C)(C)C)c4O[C@H]2[C@@H](O)C=C[C@H]3[C@H]1C5 [Pro-drug A],sustained release of morphine,sustained release of morphine,–
N.N.[Cl][Pt][Cl] [cisplatin],–,–,no effect
